Source: patent publication US11766410B2, “Composition for preventing or treating dry eye syndrome containing α-humulene as active ingredient” (INJE UNIVERSITY INDUSTRY-ACADEMIC COOPERATION FOUNDATION, priority 2018, dated 2023)

Experiments:
Format in all cases: in vivo, rat
MUC6 = assay: Mucin gene expression by real-time PCR in conjunctival epithelium after eye drop administration; conditions: 10 μl of 0.5 mg/ml eye drops twice a day for 5 days, right eye vs saline left eye; corrected by β-actin; FIG. 1
Method: (§1) α-humulene was administered to the eye in the following way: 6 male rats with a body weight of about 200 g were used, and the left eye was designated as the control group and the right eye was designated as the experimental group. Samples as eye drops were administered to the eye twice a day for 5 days and 10 μl of physiological saline was administered to the left eye (control group) and 10 μl of 0.5 mg/ml α-humulene diluted in physiological saline was administered to the right eye (experimental group) as eye drops. Animals were sacrificed to extract the conjunctival epithelium containing the fornix conjunctiva from the eyes and the extracted tissue was isolated and used for molecular biological analysis.
(§2) RNA was extracted from the ocular tissues of rats according to the manufacturers instructions using RNeasy mini kit from Qiagen (USA). The cDNA was synthesized using the cDNA synthesis kit of Qiagen (USA) from the isolated RNA, and then it was used for real-time polymerase chain reaction (real-time PCR). Real-time PCR was performed according to the manufacturer's instructions using Qiagen's Rotor-Gene Q 2 plex real-time DNA amplifier and Qiagen's two-step PCR SYBR kit, and the amount of amplified DNA was quantitatively compared. Specifically, after pre-denaturation at 95° C. for 5 minutes based on the cycling protocol, each 40 cycles were repeated at 95° C. for 5 seconds and at 60° C. for 10 seconds, and it was performed in the order of the melting step rising for 3 minutes from 60° C. to 95° C. The product amplified by the real-time PCR was quantified using the Delta delta Ct method, and corrected by the expression amount of β-actin for each sample.

MUC4 = assay: as above; conditions: 10 μl of 0.5 mg/ml eye drops twice a day for 5 days, right eye vs saline left eye; corrected by β-actin; FIG. 1
Method: as §1, §2

MUC1 = assay: as above; conditions: 10 μl of 0.5 mg/ml eye drops twice a day for 5 days, right eye vs saline left eye; corrected by β-actin; FIG. 1
Method: as §1, §2

animal model of dry eye = assay: Inhibition and treatment effect on dry corneal epithelial damage, tear amount by tear test strip; conditions: 10 μl of 0.5 mg/ml eye drop solution for 2 weeks, FIG. 2
Method: For experiments on dry corneal epithelial damage, an animal model of dry eye was prepared. It was induced by instill 1% atropine sulfate and 0.1% benzalkonium chloride twice a day for 2 weeks. After administration of the dry eye inducer, the experimental animals were applied by ocular administration according to the above-described administration method at an interval of 1 hour.
After administration of the sample for 2 weeks, the animals were anesthetized with isoflurane, and then the tear amount of each rat was measured using a Shrimer tear test strip.

C/C1=C\CC/C(C)=C/CC(C)(C)/C=C/C1 [α-humulene]
expression of MUC6 (MUC6): increased significantly | expression of MUC4 (MUC4): increased significantly | expression of MUC1 (MUC1): increased significantly | amount of tears (animal model of dry eye; AS/BAC-induced dry eye, tear test strip): significant difference in the amount of tears | therapeutic effect on dry corneal epithelial damage (animal model of dry eye; dry eye induced by 1% atropine sulfate/0.1% benzalkonium chloride (AS/BAC)): showed the therapeutic effect of the corneal epithelium
